The experiment concerns the target T1, human USP13 (Homo sapiens, UniProt Q92995).
T1 construct: USP13 activity via ELISA in human SHSY5Y neuroblastoma cells; endogenous in cells; host or cells: human SH-SY5Y neuroblastoma cells (transiently transfected with human wild-type alpha-synuclein, not with USP13)
T1 sequence (Q92995 1-863): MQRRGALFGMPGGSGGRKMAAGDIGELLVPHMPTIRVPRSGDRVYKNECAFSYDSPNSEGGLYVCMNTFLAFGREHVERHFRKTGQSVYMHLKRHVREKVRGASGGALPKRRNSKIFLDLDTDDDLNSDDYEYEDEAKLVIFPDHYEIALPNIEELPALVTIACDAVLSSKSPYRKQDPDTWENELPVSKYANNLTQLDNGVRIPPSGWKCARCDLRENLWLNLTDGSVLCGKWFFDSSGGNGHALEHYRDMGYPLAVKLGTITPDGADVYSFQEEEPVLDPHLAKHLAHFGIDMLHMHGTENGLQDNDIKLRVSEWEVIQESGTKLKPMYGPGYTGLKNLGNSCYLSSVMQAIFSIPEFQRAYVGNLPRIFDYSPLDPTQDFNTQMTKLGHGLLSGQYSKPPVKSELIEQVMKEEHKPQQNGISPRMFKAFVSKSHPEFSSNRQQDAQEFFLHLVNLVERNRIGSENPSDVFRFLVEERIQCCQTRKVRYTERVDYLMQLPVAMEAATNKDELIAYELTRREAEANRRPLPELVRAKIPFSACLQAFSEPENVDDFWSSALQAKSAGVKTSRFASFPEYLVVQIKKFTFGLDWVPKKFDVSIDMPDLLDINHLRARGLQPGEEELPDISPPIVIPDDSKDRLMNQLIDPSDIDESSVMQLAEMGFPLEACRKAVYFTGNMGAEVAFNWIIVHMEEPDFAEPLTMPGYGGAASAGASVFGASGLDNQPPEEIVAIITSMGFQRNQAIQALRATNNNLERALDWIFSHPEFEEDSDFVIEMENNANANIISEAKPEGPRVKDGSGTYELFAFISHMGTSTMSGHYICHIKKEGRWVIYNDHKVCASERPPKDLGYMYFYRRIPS
Kind of experiment: USP13 activity via ELISA in SHSY5Y cells. The class given is cell-based. Here is the method: Cell lines, transfection, and treatment.
A total of 25 μL soluble protein was incubated overnight at 4° C. with 25 μL of a mixed bead solution. After washing, samples were incubated with 25 μL detection antibody solution for 1.5 hours at room temperature. Streptavidin-phycoerythrin (25 μL) was added to each well containing the 25 μL of detection antibody solution. Samples were then washed and suspended in 100 μL of sheath fluid. Samples were then run on MAGPIX with Xponent software. The median fluorescent intensity (MFI) data were analyzed using a 5-parameter logistic or spline curve-fitting method for calculating analyte concentrations in samples. Specific alpha-synuclein ELISAs were performed on tissue soluble extracts from midbrain lysates in 1XSTEN buffer. The ELISA for USP13 (MyBioSource, Cat # MBS9335287), Human alpha-synuclein (Biolegend, Cat #844101) and specific p-Tau ser396 (Invitrogen, KHB7031) were performed on cell or brain tissue extracts as described above according to manufacturers' protocol.
Statistical and Data Analysis. All statistical analyses were performed using GraphPad Prism version 5.0 (GraphPad software, Inc, San Diego, CA, USA). Two-tailed student's t-test was used in comparison of means of two groups. Ordinary one-way analysis of variance (ANOVA) followed by Newman-Keuls or Dunnett comparison post hoc tests were used in comparison of means of multiple groups. Asterisks denote actual p-value significances (*<0.05, **<0.01, ***<0.001 and ****<0.0001), and N is the number of animals or the number of independent experiments (cell culture) per group. Unless otherwise indicated, data are expressed as Mean±SD. IC50 to USP13 levels was also estimated using GraphPad Prism version 5.0 (GraphPad software, Inc, San Diego, CA, USA).
For orientation: In an ELISA, binding on a coated surface is turned into a signal by an enzyme label.

Molecules are shown by their SMILES.

Usually IC50 stands for the concentration that gives 50% inhibition. Turning to `Fc1ccc2nccc(OCc3ccccc3)c2c1` [4-(Benzyloxy)-6-fluoroquinoline], the IC50 (SHSY5Y cell line, estimated with GraphPad Prism, read-out: IC50 to inhibit USP13 activity) is 78 nM. Also, for the setting “SHSY5Y cells, 5 hours, concentration range of 1 nM-1 mM”, the “USP13 activity via ELISA” value is given as “significantly reduce the activity of human USP13”.
